Source: US20230172915A1, “DHODH INHIBITOR FOR THE TREATMENT OF COVID-19” (priority 2020, published 2023)

What was measured:
[1] = system: HT1080 human fibrosarcoma cells; experiment: De novo pyrimidine nucleotide synthesis from 15N-glutamine in HT1080 cells; assay type: cell-based; settings: 100 nM
Source text: In this Example, fibrosarcoma cells were used to investigate the effect of PTC299 on pyrimidine nucleotide synthesis. Glutamine is an upstream precursor of dihydroorotic acid in the de novo pyrimidine synthesis pathway, as illustrated in FIG. 1.

DHODH = target: T1, DHODH (Homo sapiens, UniProt Q02127); experiment: Isolated mitochondria colorimetric assay of DHODH activity; assay type: biochemical; settings: 0.1, 1, 10, 100, 1000, or 1000 nM
T1 construct: from tissue; host or cells: isolated mitochondria / mitochondria extracts
Source text: FIG. 3 is a plot of % inhibition vs compound concentration in nM, illustrating the results of a colorimetric assay of inhibition of DHODH activity in vitro in mitochondria extracts by PTC299, brequinar, and teriflunomide, compared to the negative control, PTC-371.
The latter two compounds are known DHODH inhibitors.

SARS-CoV-2 USA-WA1/2020 = experiment: PTC299 and remdesivir alone or combined, SARS-CoV-2 titer in Vero cells (TCID50); assay type: cell-based; settings: remdesivir 5 µM, 24 hours post infection

T1 sequence (Q02127 whole entry, species assumed): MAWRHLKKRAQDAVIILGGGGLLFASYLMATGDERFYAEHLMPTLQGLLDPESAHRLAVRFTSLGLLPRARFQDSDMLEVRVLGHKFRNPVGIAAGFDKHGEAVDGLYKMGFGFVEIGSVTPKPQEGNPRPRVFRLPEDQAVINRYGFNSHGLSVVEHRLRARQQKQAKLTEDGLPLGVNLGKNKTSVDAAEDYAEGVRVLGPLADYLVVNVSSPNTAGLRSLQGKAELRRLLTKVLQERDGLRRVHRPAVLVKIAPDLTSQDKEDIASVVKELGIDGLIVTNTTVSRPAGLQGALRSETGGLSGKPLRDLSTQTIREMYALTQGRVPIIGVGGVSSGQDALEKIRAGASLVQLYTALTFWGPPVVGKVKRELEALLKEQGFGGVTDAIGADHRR

SMILES | suppression of de novo pyrimidine nucleotide biosynthesis [1] | inhibition of DHODH activity (DHODH) | reduction in titer relative to untreated control (SARS-CoV-2 USA-WA1/2020) [%]
COc1ccc(C2c3[nH]c4ccc(Cl)cc4c3CCN2C(=O)Oc2ccc(Cl)cc2)cc1 (stereo not drawn) [PTC-371, reference compound] | did not suppress de novo pyrimidine nucleotide biosynthesis | no inhibition was observed | –
CCC(CC)COC(=O)[C@H](C)N[P@](=O)(OC[C@H]1O[C@@](C#N)(c2ccc3c(N)ncnn23)[C@H](O)[C@@H]1O)Oc1ccccc1 [Remdesivir, remdesivir, reference compound] | – | – | 86
